Among the data in patent US11512097B2, “Heterocyclic compounds as Delta-5 desaturase inhibitors and methods of use” (Amgen Inc., priority 2019, dated 2022) are IC50 values, retold here.

One may read the IC50 as the concentration needed to halve the response being measured. Higher therefore signals lower potency.

The structures appear in SMILES notation.

For this test, the target named is T1, Delta-5-Desaturase (D5D), membrane preparations of D5D-overexpressing HEK293 6E cells (Homo sapiens, UniProt O60427).
T1 construct: expressed in transfected cells; host or cells: HEK293 6E cells (membrane preparation)
T1 sequence (O60427 whole entry, species assumed): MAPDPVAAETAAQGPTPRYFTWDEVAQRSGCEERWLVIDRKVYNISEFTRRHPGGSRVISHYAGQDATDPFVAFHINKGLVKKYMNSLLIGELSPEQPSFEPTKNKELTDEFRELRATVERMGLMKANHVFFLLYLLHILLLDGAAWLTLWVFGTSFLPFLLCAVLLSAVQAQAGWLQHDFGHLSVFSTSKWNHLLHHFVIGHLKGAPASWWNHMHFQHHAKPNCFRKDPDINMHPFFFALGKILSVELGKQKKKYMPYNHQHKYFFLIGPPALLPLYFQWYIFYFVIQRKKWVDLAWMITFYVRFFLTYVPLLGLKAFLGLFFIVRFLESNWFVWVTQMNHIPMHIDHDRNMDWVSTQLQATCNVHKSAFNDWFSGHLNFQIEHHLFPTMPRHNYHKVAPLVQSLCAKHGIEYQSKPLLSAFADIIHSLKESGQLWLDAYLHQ
Briefly: In vitro measurement of Delta-5-Desaturase inhibitory activity using DGLA-CoA and Arachidonyl-CoA mass spectrometric assays. Format: biochemical. The conditions noted are these: D5D membrane 10 μg/mL, one-hour incubation, average of at least two independent runs. The procedure:
In Vitro Measurement of Delta-5-Desaturase Inhibitory Activity Using DGLA-CoA and Arachidonyl-CoA Mass Spectrometric Assays Membrane preparations of D5D-overexpressing HEK293 6E cells were prepared in which the total protein concentration was 5.6 mg/mL. Stock D5D membrane preparations were diluted in D5D assay buffer (25 mM 2-amino-2-(hydroxymethyl)-1,3-propanediol, pH 7.5 containing 10 mM MgCl2, 1 mM octyl glucoside (SigmaAldrich O-8001), 1 mM tris(2-carboxyethyl)phosphine hydrochloride (SigmaAldrich 646547)) to a final D5D membrane concentration of 10 μg/mL in an assay plate containing serially diluted test compounds. To 15 μL of this D5D preparation was added 15 μL of a substrate solution (0.25 mM NADH (nicotinamide adenine dinucleotide, Roche Diag. 10107735001), 0.25 mM adenosine triphosphate (SigmaAldrich A-3377), 0.05 mM coenzyme A hydrate (SigmaAldrich C-4282), and 0.01 mM DGLA (dihomo-g-linolenic acid, Sigma E-4504) in the same D5D assay buffer. After one-hour incubation at ambient temperature acetonitrile (30 μL) was added to quench the reaction and plates were centrifuged for 10 min @ 3,000 rpm. Mass spectrometric analysis involved a Rapidfire 360 SPE system coupled to an ABSciex API4000 Triple Quadrupole mass spectrometer using a C18 SPE cartridge (G9203-80105) with ionization in negative mode (solvent A=100% water; solvent B=100% acetonitrile, each solvent containing 5 mM ammonium acetate). DGLA-CoA and Arachidonyl-CoA were detected by multiple reaction monitoring (MRM) of the doubly charged parent ions at m/z 526.6 and 525.6, respectively. […] Sx is value from unknown sample, So is value from DMSO alone and Sc is value from no enzyme well. For CRC analysis, the % of inhibitions were analysed with 4 Parameter Logistic Model or Sigmoidal Dose-Response Model using XLfit (IDBS, Guilford, UK). The potency of the test item was expressed as IC50 nM, corresponding to the test item concentration able to inhibit the 50% of the enzyme maximal response. IC50 values were averaged values determined by at least two independent runs. The results presented in Table 15 have been generated with the in vitro assay described above. This assay may be used to test any of the compounds described herein to assess and characterize a compound's ability to inhibit D5D.
`Cc1nn2c(=O)c(-c3cnn(C[C@H]4CC4(F)F)c3)c(C(F)(F)F)nc2s1` (single isomer, unassigned) [Example 111] returned a 50% inhibitory concentration (IC50) of 452 nM.

In turn, `Cc1cn2c(=S)c(-c3cnn(CC(F)(F)C(F)(F)F)c3)c(C(F)(F)F)nc2n1C` [Example 92, 1,2-dimethyl-6-[1-(2,2,3,3,3-pentafluoropropyl)-1H-pyrazol-4-yl]-7-(trifluoromethyl)-1H,5H-imidazo[1,2-a]pyrimidine-5-thione] displayed an IC50 of 132 nM.

The molecule `O=c1c(-c2cnn(CC(F)(F)C(F)(F)F)c2)c(C(F)(F)F)nc2sc(CO)cn12` [Example 32, 2-(hydroxymethyl)-6-[1-(2,2,3,3,3-pentafluoropropyl)-1H-pyrazol-4-yl]-7-(trifluoromethyl)-5H-[1,3]thiazolo[3,2-a]pyrimidin-5-one] had an IC50 of 45.6 nM.

The molecule `CC(C)N1C(=O)Cn2c1nc(C(F)(F)F)c(-c1cnn(CC(F)(F)C(F)(F)F)c1)c2=O` [Example 35, 6-[1-(2,2,3,3,3-pentafluoropropyl)-1H-pyrazol-4-yl]-1-(propan-2-yl)-7-(trifluoromethyl)-1H,2H,3H,5H-imidazo[1,2-a]pyrimidine-2,5-dione] came in with an IC50 of 118 nM.

`CCn1c(C)cn2c(=O)c(-c3cnn(CC(F)(F)C(F)(F)F)c3)c(C(F)(F)F)nc12` [Example 56, 1-ethyl-2-methyl-6-[1-(2,2,3,3,3-pentafluoropropyl)-1H-pyrazol-4-yl]-7-(trifluoromethyl)-1H,5H-imidazo[1,2-a]pyrimidin-5-one] returned an IC50 of 34.3 nM.

With `Cc1cn2c(=O)c(-c3cnn(CC4CC4)c3)c(C(F)(F)F)nc2n1C` [Example 61, 6-[1-(cyclopropylmethyl)-1H-pyrazol-4-yl]-1,2-dimethyl-7-(trifluoromethyl)-1H,5H-imidazo[1,2-a]pyrimidin-5-one], the IC50 is 73.7 nM.

Take `Cc1cn2c(=O)c(-c3cnn(CCC(F)(F)F)c3)c(C(F)(F)F)nc2n1C` [Example 53, 1,2-dimethyl-7-(trifluoromethyl)-6-[1-(3,3,3-trifluoropropyl)-1H-pyrazol-4-yl]-1H,5H-imidazo[1,2-a]pyrimidin-5-one]: the IC50 turned out to be 6.4 nM.

`Cc1cn2c(=O)c(-c3cnn(CC(F)(F)C(F)(F)F)c3)c(C(F)(F)F)nc2n1-c1cn[nH]c1` [Example 103, 2-methyl-6-[1-(2,2,3,3,3-pentafluoropropyl)-1H-pyrazol-4-yl]-1-(1H-pyrazol-4-yl)-7-(trifluoromethyl)-1H,5H-imidazo[1,2-a]pyrimidin-5-one] gave a half-inhibitory concentration (IC50) of 301 nM.

In turn, `Cc1cn2c(=O)c(-c3cnn(CC(F)(F)C(F)(F)F)c3)c(C(F)(F)F)nc2n1-c1ccccn1` [Example 93, 2-methyl-6-[1-(2,2,3,3,3-pentafluoropropyl)-1H-pyrazol-4-yl]-1-(pyridin-2-yl)-7-(trifluoromethyl)-1H,5H-imidazo[1,2-a]pyrimidin-5-one] displayed an IC50 of 678 nM.

`COCc1nn2c(=O)c(-c3cnn(CC(F)(F)C(F)(F)F)c3)c(C(F)(F)F)nc2s1` [Example 42, 2-(methoxymethyl)-6-[1-(2,2,3,3,3-pentafluoropropyl)-1H-pyrazol-4-yl]-7-(trifluoromethyl)-5H-[1,3,4]thiadiazolo[3,2-a]pyrimidin-5-one] yielded an IC50 of 27.4 nM.

For the molecule `CN1C(=O)C(C)(C)n2c1nc(C(F)(F)F)c(-c1cnn(CC(F)(F)C(F)(F)F)c1)c2=O` [Example 36, 1,3,3-trimethyl-6-[1-(2,2,3,3,3-pentafluoropropyl)-1H-pyrazol-4-yl]-7-(trifluoromethyl)-1H,2H,3H,5H-imidazo[1,2-a]pyrimidine-2,5-dione], the IC50 is > 67000 nM.

`Cn1ncn2c(=O)c(-c3cnn(CC(F)(F)C(F)(F)F)c3)c(C(F)(F)F)nc12` [Example 27, 1-methyl-6-[1-(2,2,3,3,3-pentafluoropropyl)-1H-pyrazol-4-yl]-7-(trifluoromethyl)-1H,5H-[1,2,4]triazolo[4,3-a]pyrimidin-5-one] showed an IC50 of 2.6 nM.

`Cc1nn2c(=O)c(-c3ccn(CC(F)(F)C(F)(F)F)n3)c(C(F)(F)F)nc2s1` [Example 30, 2-methyl-6-[1-(2,2,3,3,3-pentafluoropropyl)-1H-pyrazol-3-yl]-7-(trifluoromethyl)-5H-[1,3,4]thiadiazolo[3,2-a]pyrimidin-5-one] showed an IC50 of 17900 nM.

In turn, `Cc1cn2c(=O)c(-c3cnn(CCC(F)(F)F)c3)c(C(F)(F)F)nc2n1CC1CC1` [Example 66, 1-(cyclopropylmethyl)-2-methyl-7-(trifluoromethyl)-6-[1-(3,3,3-trifluoropropyl)-1H-pyrazol-4-yl]-1H,5H-imidazo[1,2-a]pyrimidin-5-one] yielded an IC50 of 6.6 nM.

Regarding `Cc1cn2c(=O)c(-c3cnn(CC4CC4(F)F)c3)c(C(F)(F)F)nc2[nH]1` (racemic) [Example 76, 6-{1-[(2,2-difluorocyclopropyl)methyl]-1H-pyrazol-4-yl}-2-methyl-7-(trifluoromethyl)-1H,5H-imidazo[1,2-a]pyrimidin-5-one], the IC50 was found to be 26 nM.

In turn, `C[C@H]1Cn2c(nc(C(F)(F)F)c(-c3cnn(CC(F)(F)C(F)(F)F)c3)c2=O)S1` (single isomer, unassigned) [Example 113] yielded an IC50 of 11.8 nM.

Molecule `COc1nn2c(=O)c(-c3cnn(CC(F)(F)C(F)(F)F)c3)c(C(F)(F)F)nc2s1` [Example 43, 2-methoxy-6-[1-(2,2,3,3,3-pentafluoropropyl)-1H-pyrazol-4-yl]-7-(trifluoromethyl)-5H-[1,3,4]thiadiazolo[3,2-a]pyrimidin-5-one] registered an IC50 of 34 nM.

As for `O=c1c(-c2cnn(CCC(F)(F)F)c2)c(C(F)(F)F)nc2n1CCC2` [Example 21, 2-(trifluoromethyl)-3-[1-(3,3,3-trifluoropropyl)-1H-pyrazol-4-yl]-4H,6H,7H,8H-pyrrolo[1,2-a]pyrimidin-4-one], the IC50 came out at 235 nM.

`Cc1cn2c(=O)c(-c3cnn(CC4CC(F)(F)C4)c3)c(C(F)(F)F)nc2n1C` [Example 60, 6-{1-[(3,3-difluorocyclobutyl)methyl]-1H-pyrazol-4-yl}-1,2-dimethyl-7-(trifluoromethyl)-1H,5H-imidazo[1,2-a]pyrimidin-5-one] came in with an IC50 of 57.8 nM.

Regarding `Cc1cn2c(=O)c(-c3ccc(OCC(F)(F)F)cc3)c(C(F)(F)F)nc2n1C` [Example 54, 1,2-dimethyl-6-[4-(2,2,2-trifluoroethoxy)phenyl]-7-(trifluoromethyl)-1H,5H-imidazo[1,2-a]pyrimidin-5-one], 17.1 nM corresponded to half-maximal inhibition (IC50).

`CN1C(=O)Cn2c1nc(C(F)(F)F)c(-c1cnn(CC(F)(F)C(F)(F)F)c1)c2=O` [Example 3, 1-methyl-6-[1-(2,2,3,3,3-pentafluoropropyl)-1H-pyrazol-4-yl]-7-(trifluoromethyl)-1H,2H,3H,5H-imidazo[1,2-a]pyrimidine-2,5-dione] showed an IC50 of 25.7 nM.

`Cc1cn2c(=O)c(-c3cnn(CC(F)(F)C(F)(F)F)c3)c(C(F)(F)F)nc2n1CCC1(O)CC1` [Example 89, 1-[2-(1-hydroxycyclopropyl)ethyl]-2-methyl-6-[1-(2,2,3,3,3-pentafluoropropyl)-1H-pyrazol-4-yl]-7-(trifluoromethyl)-1H,5H-imidazo[1,2-a]pyrimidin-5-one] had an IC50 of 53.3 nM.

`Cc1cn2c(=O)c(-c3cnn(CCC(F)(F)F)c3)c(C(F)(F)F)nc2n1CCN(C)C` [Example 67, 1-[2-(dimethylamino)ethyl]-2-methyl-7-(trifluoromethyl)-6-[1-(3,3,3-trifluoropropyl)-1H-pyrazol-4-yl]-1H,5H-imidazo[1,2-a]pyrimidin-5-one] displayed an IC50 of 1480 nM.

`Cc1cn2c(=O)c(-c3cnn(CCC(F)(F)F)c3)c(C(F)(F)F)nc2n1CCO` [Example 83, 1-(2-hydroxyethyl)-2-methyl-7-(trifluoromethyl)-6-[1-(3,3,3-trifluoropropyl)-1H-pyrazol-4-yl]-1H,5H-imidazo[1,2-a]pyrimidin-5-one] returned an IC50 of 11.5 nM.

For the molecule `Cc1cn2c(=O)c(-c3ccc(OCC(F)(F)F)cc3)c(C(F)(F)F)nc2n1CC1CC1` [Example 68, 1-(cyclopropylmethyl)-2-methyl-6-[4-(2,2,2-trifluoroethoxy)phenyl]-7-(trifluoromethyl)-1H,5H-imidazo[1,2-a]pyrimidin-5-one], half-maximal inhibition (IC50) required 356 nM.

Molecule `Cc1cn2c(=O)c(-c3cnn(CCC(F)(F)F)c3)c(C(F)(F)F)nc2n1CC1CC1(F)F` (centres unmarked) [Example 81, 1-[(2,2-difluorocyclopropyl)methyl]-2-methyl-7-(trifluoromethyl)-6-[1-(3,3,3-trifluoropropyl)-1H-pyrazol-4-yl]-1H,5H-imidazo[1,2-a]pyrimidin-5-one] registered an IC50 of 105 nM.
